{"source": "patent US9115374B2", "about": "“SYN3 compositions and methods” (MERCK SHARP & DOHME CORP., priority 2001, dated 2015)", "assay": "Stability of lyophilized formulations of SYN3, concentration by HPLC after reconstitution", "assay_type": "physicochemical", "conditions": "in the dehydrated powder at 40° C.", "procedure": "Stability testing of the resultant lyophilized products of Examples 13, 14 and 15 yielded the following results:\nStability testing was accomplished by HPLC. Lyophilized formulations were reconstituted (redissolved) with 19.5 ml WFI. Samples were placed in the indicated temperature conditions, incubated for specified times and concentrations were determined by HPLC and compared to initial concentrations.", "data": [{"molecule": "C[C@H](CCC(=O)NCCCN(CCCNC(=O)[C@H](O)[C@@H](O)[C@H](O[C@@H]1O[C@H](CO)[C@H](O)[C@H](O)[C@H]1O)[C@H](O)CO)C(=O)CC[C@@H](C)[C@H]1CC[C@H]2[C@@H]3[C@H](O)C[C@@H]4C[C@H](O)CC[C@]4(C)[C@H]3C[C@H](O)[C@]12C)[C@H]1CC[C@H]2[C@@H]3[C@H](O)C[C@@H]4C[C@H](O)CC[C@]4(C)[C@H]3C[C@H](O)[C@]12C", "note": "[SYN3, (N —(3-cholamidopropyl)—N —(3-lactobionamidopropyl))-cholamide]", "values": [{"measurement": "time SYN3 remains stable", "result": "at least 3 months"}]}]}
